Data: US20240217966A1, “PHARMACEUTICAL COMPOSITION CONTAINING GLP-1 RECEPTOR AGONIST HAVING FUSED RING” (Shionogi & Co., Ltd., priority 2021, published 2024)

Molecular target: T1, Human GLP-1 receptor (Homo sapiens, UniProt P43220)
T1 construct: expressed in transfected cells
Assay: Measurement of GLP-1 receptor agonist activity (cAMP assay)
Type: cell-based
Conditions: for Emax: CHO-K1, hGLP-1R/CHO-K1 cells, read-out: Emax(%); for EC50: cAMP increase, 37° C. 1 hour
Method: Test Example 1: (Measurement of GLP-1 Receptor Agonist Activity)
Human GLP-1 receptor stably expressing cells (hGLP-1R/CHO-K1 cells) are cultured in an α-MEM medium (Sigma) containing 10% FBS (Hyclone), 2% GlutaMAX (Gibco), 1% G418 (Nacalai Tesque), and 1% Penicillin-Streptomycin Mixed Solution (Sigma) at 37° C. under 5% CO2 conditions, and recovered by treating a 10 fold diluted 5.0 g/l-trypsin/5.3 mmol/l-EDTA solution (Nacalai Tesque) and cryopreserved.
A DMSO solution containing the compound of the present invention or human GLP-1 (7-36) (Phoenix Pharmaceuticals) is dispensed into a 384-well microplate (Greiner) at 62.5 nL/well, and in addition, 400 μM Forskolin (Nacalai Tesque) is dispensed therein at 7.5 nL/well. Subsequently, the frozen GLP-1 R/CHO-K1 cells are thawed in a thermostatic bath at 37° C., suspended in HBSS buffer (GIBCO) containing 0.1% BSA (Sigma), 20 mM HEPES (GIBCO), 0.1 mM IBMX (Sigma), and 0.2 mM RO20-1724 (Calbiochem) at 2×10^4 cells/mL, and the cell suspension is added at 6 μL/well. The solution was incubated at 37° C. for 1 hour and intracellular cAMP concentration is measured using cAMP Gs dynamic kit (Cisbio) according to the protocol attached to the product. Specifically, cAMP-d2 and Anti-cAMP-Cryptate are each added in an amount of 3 μL/well, the mixture is incubated at room temperature for 1 hour, and time-resolved fluorescence is measured using PHERAstar (BMG Labtech).
The dilution concentration or the dilution solvent are changed as necessary.
The compounds of the present invention were tested essentially as described above.

[1] = cAMP, 100% = human GLP-1 (7-36) at 2 nM, 0% = DMSO only

T1 sequence (P43220 24-463): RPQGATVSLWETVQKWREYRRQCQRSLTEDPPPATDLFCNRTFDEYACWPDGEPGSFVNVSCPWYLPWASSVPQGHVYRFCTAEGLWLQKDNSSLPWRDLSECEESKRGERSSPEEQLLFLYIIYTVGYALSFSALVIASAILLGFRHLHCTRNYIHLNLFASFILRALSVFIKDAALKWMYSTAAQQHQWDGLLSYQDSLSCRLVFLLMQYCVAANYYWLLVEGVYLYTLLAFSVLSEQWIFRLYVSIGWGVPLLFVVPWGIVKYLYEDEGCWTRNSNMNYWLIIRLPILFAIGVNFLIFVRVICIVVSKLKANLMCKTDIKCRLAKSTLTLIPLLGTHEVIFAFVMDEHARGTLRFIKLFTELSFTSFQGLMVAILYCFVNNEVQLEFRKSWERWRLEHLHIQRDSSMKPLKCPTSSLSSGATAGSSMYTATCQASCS

SMILES | Emax [1] [%] | EC50 (hGLP-1R/CHO-K1 cells) [nM] | Emax(%) (hGLP-1R/CHO-K1 cells, cAMP, 100% = human GLP-1 (7-36) at 2 nM, 0% = DMSO only)
O=C(O)c1cc(OC(F)F)c2nc(CN3CCc4cc(C(F)(F)F)c(OCc5ccc(Cl)cc5F)cc4C3)n(C[C@@H]3CCO3)c2c1 [Compound I-120] | 103 | 2.43 | 
C[C@H]1c2cc(OCc3ccc(F)cc3)c(C(F)(F)F)cc2CCN1Cc1nc2c(F)cc(C(=O)O)cc2n1C[C@@H]1CCO1 [Compound I-121] | 119 | 1.21 | 
C[C@H]1c2cc(OCc3ccc(F)cc3)c(C(F)(F)F)cc2CCN1Cc1nc2ccc(C(=O)O)c(F)c2n1C[C@@H]1CCO1 [Compound I-122] | 97 | 1.22 | 
C[C@H]1c2cc(OCc3c(F)cc(F)cc3F)c(C(F)(F)F)cc2CCN1Cc1nc2ccc(C(=O)O)cc2n1C[C@@H]1CCO1 [Compound I-124] | 102 | 1.71 | 
C[C@H]1c2cc(OCc3c(F)cc(F)cc3F)c(C(F)(F)F)cc2CCN1Cc1nc2ccc(C(=O)O)c(F)c2n1C[C@@H]1CCO1 [Compound I-126] | 99.7 |  | 98.7
O=C(O)c1ccc2nc(Cc3cc(F)c4nc(C(F)(F)F)c(OCc5ccc(Cl)cc5F)nc4c3)n(C[C@@H]3CCO3)c2c1 [Compound I-127] | 111 | 1.15 | 
O=C(O)c1ccc2nc(Cc3cc4nc(OCc5ccc(Cl)cc5F)c(C(F)(F)F)nc4cc3F)n(C[C@@H]3CCO3)c2c1 [Compound I-128] | 81.3 | 40.3 | 
C[C@H]1c2cc(OCc3c(F)cc(Cl)cc3F)c(C(F)(F)F)cc2CCN1Cc1nc2c(F)cc(C(=O)O)cc2n1C[C@@H]1CCO1 [Compound I-129] | 122 | 0.329 | 
C[C@H]1c2cc(OCc3c(F)cc(Cl)cc3F)c(C(F)(F)F)cc2CCN1Cc1nc2ccc(C(=O)O)c(F)c2n1C[C@@H]1CCO1 [Compound I-130] | 139 | 0.307 | 
Cc1c(Cc2nc3ccc(C(=O)O)cc3n2C[C@@H]2CCO2)ccc2nc(C(F)(F)F)c(OCc3ccc(Cl)cc3F)nc12 [Compound I-132] | 105 | 0.881 | 
O=C(O)c1cc(F)c2nc(CN3CCc4cc(C(F)(F)F)c(OCc5ccc(Cl)cc5F)cc4C3)n(C[C@@H]3CCO3)c2c1F [Compound I-134] | 119 | 1.18 | 
O=C(O)c1ccc2nc(CN3CCc4cc(C(F)(F)F)c(OCc5ccc(C(F)(F)F)cn5)cc4C3)n(C[C@@H]3CCO3)c2c1 [Compound I-135] | 91 | 27.6 | 
Cc1ccc(COc2cc3c(cc2C(F)(F)F)CCN(Cc2nc4ccc(C(=O)O)cc4n2C[C@@H]2CCO2)C3)nc1 [Compound I-136] | 107 | 5.73 | 
Cc1csc(COc2cc3c(cc2C(F)(F)F)CCN(Cc2nc4ccc(C(=O)O)cc4n2C[C@@H]2CCO2)C3)n1 [Compound I-137] | 114 | 5.56 | 
Cc1nc(COc2cc3c(cc2C(F)(F)F)CCN(Cc2nc4ccc(C(=O)O)cc4n2C[C@@H]2CCO2)C3)cs1 [Compound I-138] | 94.3 | 68.8 | 
COc1cc(Cl)ccc1COc1cc2c(cc1C(F)(F)F)CCN(Cc1nc3ccc(C(=O)O)cc3n1C[C@@H]1CCO1)C2 [Compound I-139] | 117 | 1.23 | 
Cc1cc(Cl)ccc1COc1cc2c(cc1C(F)(F)F)CCN(Cc1nc3ccc(C(=O)O)cc3n1C[C@@H]1CCO1)C2 [Compound I-140] | 96 | 18 | 
O=C(O)c1ccc2nc(CN3CCc4cc(C(F)(F)F)c(OCc5ccc(OC(F)F)c(F)c5)cc4C3)n(C[C@@H]3CCO3)c2c1 [Compound I-143] | 101 | 25.3 | 
O=C(O)c1cc(C(F)F)c2nc(CN3CCc4cc(C(F)(F)F)c(OCc5ccc(Cl)cc5F)cc4C3)n(C[C@@H]3CCO3)c2c1 [Compound I-146] | 102 | 40.3 | 
Cc1cn(C)nc1COc1cc2c(cc1C(F)(F)F)CCN(Cc1nc3ccc(C(=O)O)cc3n1C[C@@H]1CCO1)C2 [Compound I-147] | 88 | 99.3 | 
CCn1ccc(COc2cc3c(cc2C(F)(F)F)CCN(Cc2nc4ccc(C(=O)O)cc4n2C[C@@H]2CCO2)C3)n1 [Compound I-148] | 95 | 32.5 | 
CC(C)n1ccc(COc2cc3c(cc2C(F)(F)F)CCN(Cc2nc4ccc(C(=O)O)cc4n2C[C@@H]2CCO2)C3)n1 [Compound I-149] | 93.7 | 101 | 
O=C(O)c1ccc2nc(CN3CCc4cc(C(F)(F)F)c(OCc5ccn(C(F)F)n5)cc4C3)n(C[C@@H]3CCO3)c2c1 [Compound I-150] | 92 | 18.3 | 

SMILES | Emax [1] [%] | EC50 (hGLP-1R/CHO-K1 cells) [nM] | Emax(%) (hGLP-1R/CHO-K1 cells, cAMP, 100% = human GLP-1 (7-36) at 2 nM, 0% = DMSO only)
O=C(O)c1ccc2nc(CN3CCc4cc(C(F)(F)F)c(OCc5ccn(CC(F)(F)F)n5)cc4C3)n(C[C@@H]3CCO3)c2c1 [Compound I-151] | 93.7 | 124 | 
O=C(O)c1ccc2nc(CN3CCc4cc(C(F)(F)F)c(OCc5ccccc5OC(F)F)cc4C3)n(C[C@@H]3CCO3)c2c1 [Compound I-152] | 111 | 5.88 | 
COc1cc(F)c(COc2cc3c(cc2C(F)(F)F)CCN(Cc2nc4ccc(C(=O)O)cc4n2C[C@@H]2CCO2)C3)c(F)c1 [Compound I-153] | 104 | 5.34 | 
O=C(O)c1ccc2nc(CN3CCc4cc(C(F)(F)F)c(OCc5ccccc5F)cc4C3)n(C[C@@H]3CCO3)c2c1 [Compound I-154] | 97.7 | 38.4 | 
O=C(O)c1ccc2nc(CN3CCc4cc(C(F)(F)F)c(OCc5c(F)cccc5F)cc4C3)n(C[C@@H]3CCO3)c2c1 [Compound I-155] | 93.7 | 25.9 | 
O=C(O)c1ccc2nc(CN3CCc4cc(C(F)(F)F)c(OCc5ccccc5)cc4C3)n(C[C@@H]3CCO3)c2c1 [Compound I-156] | 89 | 36.8 | 
N#Cc1cc(Cl)ccc1COc1cc2c(cc1C(F)(F)F)CCN(Cc1nc3ccc(C(=O)O)cc3n1C[C@@H]1CCO1)C2 [Compound I-157] | 109 | 4.29 | 
O=C(O)c1ccc2nc(CN3CCc4cc(C(F)(F)F)c(OCc5c(F)cccc5Cl)cc4C3)n(C[C@@H]3CCO3)c2c1 [Compound I-158] | 94 | 16.3 | 
Cc1cc(F)cc(C)c1COc1cc2c(cc1C(F)(F)F)CCN(Cc1nc3ccc(C(=O)O)cc3n1C[C@@H]1CCO1)C2 [Compound I-159] | 92.3 | 13.3 | 
C[C@H]1c2cc(OCc3ccc(Cl)cc3)c(C(F)(F)F)cc2CCN1Cc1nc2ccc(C(=O)O)cc2n1C[C@@H]1CCO1 [Compound I-161] | 110 | 1.28 | 
Cc1ccc(COc2cc3c(cc2C(F)(F)F)CCN(Cc2nc4ccc(C(=O)O)cc4n2C[C@@H]2CCO2)[C@H]3C)cc1 [Compound I-162] | 106 | 1.37 | 
C[C@H]1c2cc(OCc3ccc(C4CC4)cc3)c(C(F)(F)F)cc2CCN1Cc1nc2ccc(C(=O)O)cc2n1C[C@@H]1CCO1 [Compound I-163] | 131 | 10.6 | 
COc1cc(Cl)ccc1COc1cc2c(cc1C(F)(F)F)CCN(Cc1nc3ccc(C(=O)O)cc3n1C[C@@H]1CCO1)[C@H]2C [Compound I-164] | 104 | 0.302 | 
C[C@H]1c2cc(OCc3ccccc3Cl)c(C(F)(F)F)cc2CCN1Cc1nc2ccc(C(=O)O)cc2n1C[C@@H]1CCO1 [Compound I-165] | 103 | 2.74 | 
C[C@H]1c2cc(OCc3ccc(F)cc3F)c(C(F)(F)F)cc2CCN1Cc1nc2ccc(C(=O)O)cc2n1C[C@@H]1CCO1 [Compound I-166] | 111 | 1.23 | 
C[C@H]1c2cc(OCc3ccc(Cl)cc3Cl)c(C(F)(F)F)cc2CCN1Cc1nc2ccc(C(=O)O)cc2n1C[C@@H]1CCO1 [Compound I-167] | 102 | 0.707 | 
C[C@H]1c2cc(OCc3ccc(OC(F)F)cc3F)c(C(F)(F)F)cc2CCN1Cc1nc2ccc(C(=O)O)cc2n1C[C@@H]1CCO1 [Compound I-168] | 104 | 2.24 | 
C[C@H]1c2cc(OCc3cc(F)c(Cl)cc3F)c(C(F)(F)F)cc2CCN1Cc1nc2ccc(C(=O)O)cc2n1C[C@@H]1CCO1 [Compound I-169] | 101 | 1.21 | 
C[C@H]1c2cc(OCc3ccc(C#N)cc3F)c(C(F)(F)F)cc2CCN1Cc1nc2ccc(C(=O)O)cc2n1C[C@@H]1CCO1 [Compound I-170] | 120 | 1.24 | 
COc1ccc(COc2cc3c(cc2C(F)(F)F)CCN(Cc2nc4ccc(C(=O)O)cc4n2C[C@@H]2CCO2)[C@H]3C)cc1 [Compound I-171] | 98.7 | 2.37 | 
C[C@H]1c2cc(OCc3ccc(Cl)cn3)c(C(F)(F)F)cc2CCN1Cc1nc2ccc(C(=O)O)cc2n1C[C@@H]1CCO1 [Compound I-172] | 113 | 0.946 | 
Cc1csc(COc2cc3c(cc2C(F)(F)F)CCN(Cc2nc4ccc(C(=O)O)cc4n2C[C@@H]2CCO2)[C@H]3C)n1 [Compound I-173] | 102 | 2.3 | 
